From patent US7795213B2 (POSCO, priority 2002, dated 2010)

Legend:
Aβ [1] = target: T1, Aβ (Homo sapiens, UniProt P05067); experiment: Binding of growth factors to Aβ; conditions: among NGF, bFGF, PDGF, VEGF and midkine
T1 construct: Aβ (Aβ) is the major component of senile plaques and is derived from the amyloid precursor protein by proteolytic cleavage

endothelial cells [2] = experiment: Effect of Aβ peptides on binding of VEGF with the receptors on endothelial cells; type: cell-based; conditions: 1 μM; data not shown
endothelial cells [3] = experiment: Effect of Aβ peptides on proliferation of endothelial cells induced by VEGF; type: cell-based; conditions: 1 μM; data not shown
MDA-MB-231 tumor cells = experiment: Effect of Aβ peptides on binding of VEGF to tumor cells that express neuropilin-1; type: cell-based; conditions: data not shown
[4] = target: T2, VEGF/Aβ interaction (VEGF165, biotinylated Aβ) (Homo sapiens, UniProt P15692); experiment: Inhibition of biotinylated Aβ binding to coated VEGF165; conditions: VEGF165 50 ng/well; biotinylated Aβ 100 ng/ml; increasing concentration of test compound
T2 sequence (P15692 27-191 isoform P15692-4 limits assumed): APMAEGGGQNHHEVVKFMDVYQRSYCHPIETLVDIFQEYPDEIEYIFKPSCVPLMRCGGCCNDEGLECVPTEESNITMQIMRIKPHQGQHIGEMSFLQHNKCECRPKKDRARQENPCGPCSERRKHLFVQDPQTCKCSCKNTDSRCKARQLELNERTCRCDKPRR
Protocol: Biotinylated Aβ (100 ng/ml) was added to each well in the presence of increasing concentration of test compound. After 2 hours, each well was rinsed several times with 0.05% Tween in PBS. The bound biotinylated Aβ was determined with steptavidin conjugated with horse radish peroxidase.

Aβ [5] = target: T1, Aβ; experiment: Inhibition of the aggregation of Aβ by Aβ-VEGF binding inhibitors; type: biochemical

PDGF
binding of growth factor to Aβ (Aβ [1]): only VEGF and midkine bound to A

Aβ1-40: β-amyloid peptide residues 1-40 (BACHEM)
effect on the binding of VEGF with the receptors on endothelial cells (endothelial cells [2]): Neither Aβ1-40 nor Aβ1-42, even at a high concentration (1 μM), affected
effect on the proliferation of endothelial cells induced by VEGF (endothelial cells [3]): Neither Aβ1-40 nor Aβ1-42, even at a high concentration (1 μM), affected
effect on the binding of VEGF to MDA-MB-231 tumor cells (MDA-MB-231 tumor cells): Neither did Aβ1-40 nor Aβ1-42 affect

NGF: nerve growth factor
binding of growth factor to Aβ (Aβ [1]): only VEGF and midkine bound to A

Aβ1-42: β-amyloid peptide 1-42, SEQ ID NO:4
effect on the binding of VEGF with the receptors on endothelial cells (endothelial cells [2]): Neither Aβ1-40 nor Aβ1-42, even at a high concentration (1 μM), affected
effect on the proliferation of endothelial cells induced by VEGF (endothelial cells [3]): Neither Aβ1-40 nor Aβ1-42, even at a high concentration (1 μM), affected
effect on the binding of VEGF to MDA-MB-231 tumor cells (MDA-MB-231 tumor cells): Neither did Aβ1-40 nor Aβ1-42 affect

bFGF: basic fibroblast growth factor
binding of growth factor to Aβ (Aβ [1]): only VEGF and midkine bound to A

O=C(O[C@@H]1Cc2c(O)cc(O)cc2O[C@@H]1c1cc(O)c(O)c(O)c1)c1cc(O)c(O)c(O)c1 [EGCG, epigallocatechin gallate, reference compound]
inhibition of binding of Aβ to VEGF [4]: inhibition
activity to inhibit the aggregation of Aβ by itself (Aβ [5]): additional activity to inhibit the aggregation of Aβ by itself

tannic acid
inhibition of binding of Aβ to VEGF [4]: inhibition

B1: midkine: heparin-binding, neurotrophic growth factor whose expression occurs mainly in fetus (protein)
chain: VAKKKDKVKKGGPGSECAEWAWGPCTPSSKDCGVGFREGTCGAQTQRIRCRVPCNWKKEFGADCKYKFENWGACDGGTGTKVRQGTLKKARYNAQCQETIRVTKPCTPKTKAKAKAKKGKGKD
binding of growth factor to Aβ (Aβ [1]): bound to A
